# According to ChEMBL document CHEMBL3991601, “The target landscape of clinical kinase drugs” (Science, 2017):
# The source made the active and inactive calls. For most assays here, no stated cut-off is given here; in the data, actives have a measured Kd and inactives only a lower limit.
# Assays:
# [1] = biological target: Protein-tyrosine kinase 6 (Homo sapiens, UniProt Q13882)
# [2] = biological target: Serine/threonine-protein kinase 16 (Homo sapiens, UniProt O75716)
# [3] = biological target: T1, DNA replication licensing factor MCM4 (Homo sapiens, UniProt P33991)
# T1 sequence (P33991 whole entry): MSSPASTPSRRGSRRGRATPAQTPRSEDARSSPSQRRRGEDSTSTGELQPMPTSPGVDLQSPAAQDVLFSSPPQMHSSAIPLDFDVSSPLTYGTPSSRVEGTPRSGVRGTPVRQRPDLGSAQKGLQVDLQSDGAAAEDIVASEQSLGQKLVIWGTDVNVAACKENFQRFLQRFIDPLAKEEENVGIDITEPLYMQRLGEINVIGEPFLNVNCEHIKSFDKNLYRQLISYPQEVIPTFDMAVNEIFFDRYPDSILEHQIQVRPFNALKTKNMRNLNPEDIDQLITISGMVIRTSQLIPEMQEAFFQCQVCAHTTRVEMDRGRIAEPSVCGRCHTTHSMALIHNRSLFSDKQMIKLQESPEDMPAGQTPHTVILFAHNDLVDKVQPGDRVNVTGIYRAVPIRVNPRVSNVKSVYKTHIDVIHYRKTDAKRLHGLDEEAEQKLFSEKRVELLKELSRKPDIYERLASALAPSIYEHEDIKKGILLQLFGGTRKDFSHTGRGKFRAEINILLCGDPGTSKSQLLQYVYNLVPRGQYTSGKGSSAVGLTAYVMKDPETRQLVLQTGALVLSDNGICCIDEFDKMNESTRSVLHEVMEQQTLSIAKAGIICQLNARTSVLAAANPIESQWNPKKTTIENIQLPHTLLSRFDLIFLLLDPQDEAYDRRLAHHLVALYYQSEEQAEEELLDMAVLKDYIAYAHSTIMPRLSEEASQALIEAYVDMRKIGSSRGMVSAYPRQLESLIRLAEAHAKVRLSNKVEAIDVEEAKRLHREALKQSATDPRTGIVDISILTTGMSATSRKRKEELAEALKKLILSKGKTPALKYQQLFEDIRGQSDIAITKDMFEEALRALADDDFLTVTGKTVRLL
# [4] = biological target: Tyrosine-protein kinase Yes (Homo sapiens, UniProt P07947)
# [5] = biological target: Rho-associated protein kinase 1 (Homo sapiens, UniProt Q13464)
# Chain of Rho-associated protein kinase 1 (Q13464 whole entry): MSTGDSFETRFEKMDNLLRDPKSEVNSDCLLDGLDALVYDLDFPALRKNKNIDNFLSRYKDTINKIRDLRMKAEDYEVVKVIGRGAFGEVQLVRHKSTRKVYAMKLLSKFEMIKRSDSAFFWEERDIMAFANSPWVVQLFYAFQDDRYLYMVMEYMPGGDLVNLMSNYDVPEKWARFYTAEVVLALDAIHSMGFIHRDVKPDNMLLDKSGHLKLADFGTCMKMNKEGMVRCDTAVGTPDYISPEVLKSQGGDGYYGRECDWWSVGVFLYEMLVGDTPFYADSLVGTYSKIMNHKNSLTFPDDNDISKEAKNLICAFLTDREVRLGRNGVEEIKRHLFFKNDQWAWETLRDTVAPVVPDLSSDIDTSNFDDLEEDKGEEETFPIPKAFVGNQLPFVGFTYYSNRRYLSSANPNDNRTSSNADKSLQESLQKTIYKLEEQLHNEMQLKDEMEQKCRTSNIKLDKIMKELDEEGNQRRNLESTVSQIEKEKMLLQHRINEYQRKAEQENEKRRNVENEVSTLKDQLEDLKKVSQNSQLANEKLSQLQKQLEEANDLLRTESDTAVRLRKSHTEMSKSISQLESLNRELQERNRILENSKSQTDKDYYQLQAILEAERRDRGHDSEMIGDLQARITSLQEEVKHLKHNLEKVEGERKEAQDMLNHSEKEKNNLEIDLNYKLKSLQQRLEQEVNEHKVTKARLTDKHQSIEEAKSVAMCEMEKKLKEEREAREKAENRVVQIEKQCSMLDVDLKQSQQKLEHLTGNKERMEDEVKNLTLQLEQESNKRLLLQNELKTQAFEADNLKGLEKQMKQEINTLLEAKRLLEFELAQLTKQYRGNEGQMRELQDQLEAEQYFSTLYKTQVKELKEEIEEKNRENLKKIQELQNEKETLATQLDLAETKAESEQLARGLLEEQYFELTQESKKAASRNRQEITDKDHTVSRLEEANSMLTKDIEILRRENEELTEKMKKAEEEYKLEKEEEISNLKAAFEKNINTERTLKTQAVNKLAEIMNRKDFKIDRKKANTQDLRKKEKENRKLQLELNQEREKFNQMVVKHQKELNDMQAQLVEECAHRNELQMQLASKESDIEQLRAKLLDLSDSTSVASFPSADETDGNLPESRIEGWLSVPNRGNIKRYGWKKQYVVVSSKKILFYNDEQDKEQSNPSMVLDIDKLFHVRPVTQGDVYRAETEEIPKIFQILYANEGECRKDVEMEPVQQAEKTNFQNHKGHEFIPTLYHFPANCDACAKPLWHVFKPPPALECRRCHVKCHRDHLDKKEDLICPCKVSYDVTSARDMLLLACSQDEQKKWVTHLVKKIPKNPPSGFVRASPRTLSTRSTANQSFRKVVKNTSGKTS
# [6] = biological target: T2, Ras-related protein Rab-27A (Homo sapiens, UniProt P51159)
# T2 sequence (P51159 whole entry): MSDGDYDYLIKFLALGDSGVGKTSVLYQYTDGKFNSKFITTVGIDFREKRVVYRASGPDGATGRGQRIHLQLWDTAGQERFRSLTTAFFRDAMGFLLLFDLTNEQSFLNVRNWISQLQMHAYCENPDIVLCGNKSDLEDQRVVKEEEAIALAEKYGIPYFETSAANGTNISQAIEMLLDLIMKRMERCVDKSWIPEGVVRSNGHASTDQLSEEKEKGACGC
# [7] = biological target: T3, Ferrochelatase, mitochondrial (Homo sapiens, UniProt P22830)
# T3 sequence (P22830 whole entry): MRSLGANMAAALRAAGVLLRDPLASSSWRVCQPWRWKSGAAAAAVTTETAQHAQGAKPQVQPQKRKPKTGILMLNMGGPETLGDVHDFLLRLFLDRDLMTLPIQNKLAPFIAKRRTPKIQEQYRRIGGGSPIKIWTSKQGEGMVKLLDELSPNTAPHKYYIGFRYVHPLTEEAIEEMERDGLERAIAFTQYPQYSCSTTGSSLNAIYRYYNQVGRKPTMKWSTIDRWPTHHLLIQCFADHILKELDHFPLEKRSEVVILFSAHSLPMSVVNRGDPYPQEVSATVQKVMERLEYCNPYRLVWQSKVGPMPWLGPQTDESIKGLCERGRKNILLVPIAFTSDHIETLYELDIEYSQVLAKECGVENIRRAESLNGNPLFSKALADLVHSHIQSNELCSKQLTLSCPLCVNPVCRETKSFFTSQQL
# [8] = biological target: T4, ADP/ATP translocase 3 (Homo sapiens, UniProt P12236)
# T4 sequence (P12236 whole entry): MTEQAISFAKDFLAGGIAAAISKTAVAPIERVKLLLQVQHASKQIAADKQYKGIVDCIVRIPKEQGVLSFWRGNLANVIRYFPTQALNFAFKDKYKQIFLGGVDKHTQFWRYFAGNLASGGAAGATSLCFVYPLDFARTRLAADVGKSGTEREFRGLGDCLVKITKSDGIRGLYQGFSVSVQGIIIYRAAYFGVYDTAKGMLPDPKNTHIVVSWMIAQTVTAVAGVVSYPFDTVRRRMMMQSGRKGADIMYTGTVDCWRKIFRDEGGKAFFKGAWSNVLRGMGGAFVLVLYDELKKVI
# [9] = biological target: T5, Interleukin-1 receptor-associated kinase 3 (Homo sapiens, UniProt Q9Y616)
# T5 sequence (Q9Y616 whole entry): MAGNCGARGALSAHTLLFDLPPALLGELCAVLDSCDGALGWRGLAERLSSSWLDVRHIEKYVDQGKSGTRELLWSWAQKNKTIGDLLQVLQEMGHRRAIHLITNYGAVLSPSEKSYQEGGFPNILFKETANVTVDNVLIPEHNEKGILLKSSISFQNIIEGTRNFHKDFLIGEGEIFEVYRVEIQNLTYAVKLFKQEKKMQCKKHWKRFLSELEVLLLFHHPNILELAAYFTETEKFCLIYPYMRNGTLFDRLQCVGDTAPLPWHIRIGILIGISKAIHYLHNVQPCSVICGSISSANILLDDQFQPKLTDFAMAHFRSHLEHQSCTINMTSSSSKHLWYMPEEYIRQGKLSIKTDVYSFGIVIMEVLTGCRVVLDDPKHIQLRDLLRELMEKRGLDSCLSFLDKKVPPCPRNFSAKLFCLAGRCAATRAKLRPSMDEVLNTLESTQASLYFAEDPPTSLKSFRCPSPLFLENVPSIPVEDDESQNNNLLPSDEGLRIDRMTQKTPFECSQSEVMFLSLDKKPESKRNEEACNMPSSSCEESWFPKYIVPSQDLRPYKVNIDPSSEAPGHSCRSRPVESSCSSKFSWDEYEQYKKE
# [10] = biological target: Mitogen-activated protein kinase kinase kinase kinase 5 (Homo sapiens, UniProt Q9Y4K4)
# Chain of Mitogen-activated protein kinase kinase kinase kinase 5 (Q9Y4K4 whole entry): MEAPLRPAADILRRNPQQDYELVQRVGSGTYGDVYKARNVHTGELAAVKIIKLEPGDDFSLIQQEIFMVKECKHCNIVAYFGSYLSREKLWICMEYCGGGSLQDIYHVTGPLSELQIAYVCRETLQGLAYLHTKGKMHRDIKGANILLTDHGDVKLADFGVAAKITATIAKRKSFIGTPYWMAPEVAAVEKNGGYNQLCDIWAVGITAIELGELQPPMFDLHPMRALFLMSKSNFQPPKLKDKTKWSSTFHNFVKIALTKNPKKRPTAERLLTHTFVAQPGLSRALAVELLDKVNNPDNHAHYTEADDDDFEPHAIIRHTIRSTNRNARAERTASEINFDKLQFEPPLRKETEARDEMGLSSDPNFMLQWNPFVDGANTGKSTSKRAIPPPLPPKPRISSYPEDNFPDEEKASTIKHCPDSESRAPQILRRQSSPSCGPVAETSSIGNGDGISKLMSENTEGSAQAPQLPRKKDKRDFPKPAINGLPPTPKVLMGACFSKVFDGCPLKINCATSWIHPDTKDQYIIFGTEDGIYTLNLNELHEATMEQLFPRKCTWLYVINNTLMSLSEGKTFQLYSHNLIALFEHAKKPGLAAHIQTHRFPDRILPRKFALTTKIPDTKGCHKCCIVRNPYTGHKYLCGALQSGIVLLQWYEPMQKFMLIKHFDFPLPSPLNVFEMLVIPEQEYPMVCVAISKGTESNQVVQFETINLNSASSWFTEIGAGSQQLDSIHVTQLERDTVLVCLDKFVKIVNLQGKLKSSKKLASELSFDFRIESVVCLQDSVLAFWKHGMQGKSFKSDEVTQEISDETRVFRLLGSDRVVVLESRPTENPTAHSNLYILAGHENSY
# [11] = biological target: Mitotic checkpoint serine/threonine-protein kinase BUB1 (Homo sapiens, UniProt O43683)
# Chain of Mitotic checkpoint serine/threonine-protein kinase BUB1 (O43683 whole entry): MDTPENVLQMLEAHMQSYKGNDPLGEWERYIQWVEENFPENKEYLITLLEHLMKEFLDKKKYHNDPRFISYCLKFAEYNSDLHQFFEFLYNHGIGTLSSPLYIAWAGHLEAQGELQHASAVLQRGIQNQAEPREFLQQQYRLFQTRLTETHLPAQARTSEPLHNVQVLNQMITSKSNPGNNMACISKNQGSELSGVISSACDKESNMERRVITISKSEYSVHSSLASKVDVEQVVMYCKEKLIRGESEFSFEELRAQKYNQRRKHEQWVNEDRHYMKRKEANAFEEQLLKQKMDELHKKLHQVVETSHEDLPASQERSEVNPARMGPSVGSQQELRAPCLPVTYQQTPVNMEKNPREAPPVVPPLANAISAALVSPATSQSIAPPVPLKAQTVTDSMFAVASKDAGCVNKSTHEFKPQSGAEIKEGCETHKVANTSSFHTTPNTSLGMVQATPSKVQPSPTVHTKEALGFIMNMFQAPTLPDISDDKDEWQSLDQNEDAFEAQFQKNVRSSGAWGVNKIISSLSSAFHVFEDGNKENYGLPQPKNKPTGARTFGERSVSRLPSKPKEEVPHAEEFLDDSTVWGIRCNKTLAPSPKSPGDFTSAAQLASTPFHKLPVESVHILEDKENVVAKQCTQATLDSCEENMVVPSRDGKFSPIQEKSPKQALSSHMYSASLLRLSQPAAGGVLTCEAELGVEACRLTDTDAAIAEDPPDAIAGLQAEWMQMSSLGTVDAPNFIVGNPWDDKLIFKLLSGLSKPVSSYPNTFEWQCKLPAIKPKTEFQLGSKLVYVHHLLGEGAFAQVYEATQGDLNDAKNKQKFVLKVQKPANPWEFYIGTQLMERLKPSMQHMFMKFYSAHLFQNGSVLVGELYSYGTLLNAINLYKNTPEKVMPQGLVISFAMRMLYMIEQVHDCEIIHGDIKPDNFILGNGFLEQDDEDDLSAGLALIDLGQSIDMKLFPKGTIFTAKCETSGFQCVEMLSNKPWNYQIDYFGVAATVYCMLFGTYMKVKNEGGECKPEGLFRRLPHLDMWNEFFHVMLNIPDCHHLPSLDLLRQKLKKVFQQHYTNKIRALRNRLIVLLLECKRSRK
# [12] = biological target: Proto-oncogene tyrosine-protein kinase Src (Homo sapiens, UniProt P12931)
# Chain of Proto-oncogene tyrosine-protein kinase Src (P12931 2-536 limits assumed): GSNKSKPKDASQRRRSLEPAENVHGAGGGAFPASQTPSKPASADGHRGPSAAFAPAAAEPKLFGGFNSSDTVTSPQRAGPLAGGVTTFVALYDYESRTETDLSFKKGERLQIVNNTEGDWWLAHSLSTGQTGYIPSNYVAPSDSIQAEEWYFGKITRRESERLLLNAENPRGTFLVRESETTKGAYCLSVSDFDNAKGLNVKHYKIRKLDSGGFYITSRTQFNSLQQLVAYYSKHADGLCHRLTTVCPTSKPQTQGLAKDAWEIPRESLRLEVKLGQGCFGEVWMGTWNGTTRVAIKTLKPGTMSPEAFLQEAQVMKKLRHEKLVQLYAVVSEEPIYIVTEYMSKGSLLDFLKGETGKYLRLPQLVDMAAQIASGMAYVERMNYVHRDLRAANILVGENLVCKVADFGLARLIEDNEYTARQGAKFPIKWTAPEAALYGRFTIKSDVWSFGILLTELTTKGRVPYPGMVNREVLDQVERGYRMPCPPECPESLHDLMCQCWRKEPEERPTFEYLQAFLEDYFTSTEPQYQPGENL
# [13] = biological target: Ras-related protein Rab-6A (Homo sapiens, UniProt P20340)
# Chain of Ras-related protein Rab-6A (P20340 whole entry): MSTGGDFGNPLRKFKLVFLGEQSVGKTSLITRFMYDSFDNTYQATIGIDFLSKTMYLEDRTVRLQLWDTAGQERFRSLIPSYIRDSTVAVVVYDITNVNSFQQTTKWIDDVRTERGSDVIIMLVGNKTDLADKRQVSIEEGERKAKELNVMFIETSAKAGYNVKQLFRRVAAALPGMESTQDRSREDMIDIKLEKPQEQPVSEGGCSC
# Chain of Protein-tyrosine kinase 6 (Q13882 whole entry): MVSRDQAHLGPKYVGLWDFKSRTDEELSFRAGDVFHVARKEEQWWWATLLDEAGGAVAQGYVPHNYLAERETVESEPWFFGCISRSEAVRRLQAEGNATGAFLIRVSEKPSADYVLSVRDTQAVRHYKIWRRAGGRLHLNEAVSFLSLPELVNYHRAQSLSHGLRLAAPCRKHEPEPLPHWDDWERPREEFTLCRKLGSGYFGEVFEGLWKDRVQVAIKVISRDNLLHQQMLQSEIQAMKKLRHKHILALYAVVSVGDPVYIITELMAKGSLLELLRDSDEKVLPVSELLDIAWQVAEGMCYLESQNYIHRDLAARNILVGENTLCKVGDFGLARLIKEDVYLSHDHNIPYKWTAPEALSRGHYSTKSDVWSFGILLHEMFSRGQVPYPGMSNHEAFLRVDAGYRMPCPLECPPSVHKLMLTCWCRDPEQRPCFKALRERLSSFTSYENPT
# Chain of Serine/threonine-protein kinase 16 (O75716 whole entry): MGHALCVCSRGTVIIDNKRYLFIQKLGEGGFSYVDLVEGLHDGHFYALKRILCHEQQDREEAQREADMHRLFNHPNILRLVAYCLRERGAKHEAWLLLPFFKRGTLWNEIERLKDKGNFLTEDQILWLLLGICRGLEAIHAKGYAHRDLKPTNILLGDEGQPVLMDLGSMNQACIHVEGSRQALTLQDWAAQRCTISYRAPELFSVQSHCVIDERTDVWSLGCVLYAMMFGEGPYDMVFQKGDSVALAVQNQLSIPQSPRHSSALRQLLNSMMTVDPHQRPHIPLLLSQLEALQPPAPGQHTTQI
SMILES,Kd [1],Kd [2],Kd [3],Kd [4],Kd [5],Kd [6],Kd [7],Kd [8],Kd [9],Kd [10],Kd [11],Kd [12],Kd [13]
O=C(c1ccc(F)c(F)c1Nc1ccc(I)cc1F)N1CC(O)([C@@H]2CCCCN2)C1 [COBIMETINIB],> 30 µM (inactive),> 30 µM (inactive),> 30 µM (inactive),> 30 µM (inactive),> 30 µM (inactive),> 30 µM (inactive),> 30 µM (inactive),> 30 µM (inactive),> 30 µM (inactive),> 30 µM (inactive),> 30 µM (inactive),> 30 µM (inactive),> 30 µM (inactive)
COC(=O)N[C@@H](C)CNc1nccc(-c2cn(C(C)C)nc2-c2cc(Cl)cc(NS(C)(=O)=O)c2F)n1 [ENCORAFENIB],> 30 µM (inactive),> 30 µM (inactive),> 30 µM (inactive),> 30 µM (inactive),> 30 µM (inactive),> 30 µM (inactive),> 30 µM (inactive),> 30 µM (inactive),> 30 µM (inactive),> 30 µM (inactive),> 30 µM (inactive),> 30 µM (inactive),> 30 µM (inactive)
CO[C@H]1C[C@@H]2CC[C@@H](C)[C@@](O)(O2)C(=O)C(=O)N2CCCC[C@H]2C(=O)O[C@H]([C@H](C)C[C@@H]2CC[C@@H](OCCO)[C@H](OC)C2)CC(=O)[C@H](C)/C=C(\C)[C@@H](O)[C@@H](OC)C(=O)[C@H](C)C[C@H](C)/C=C/C=C/C=C/1C [EVEROLIMUS],> 30 µM (inactive),> 30 µM (inactive),> 30 µM (inactive),> 30 µM (inactive),> 30 µM (inactive),> 30 µM (inactive),> 30 µM (inactive),> 30 µM (inactive),> 30 µM (inactive),> 30 µM (inactive),> 30 µM (inactive),> 30 µM (inactive),> 30 µM (inactive)
O=C1NC(=O)/C(=C/c2ccc3nccc(-c4ccncc4)c3c2)S1 [GSK-1059615],> 30 µM (inactive),> 30 µM (inactive),> 30 µM (inactive),> 30 µM (inactive),> 30 µM (inactive),> 30 µM (inactive),> 30 µM (inactive),> 30 µM (inactive),8.67 µM (active),> 30 µM (inactive),> 30 µM (inactive),> 30 µM (inactive),> 30 µM (inactive)
CC[C@H](Nc1ncnc2[nH]cnc12)c1nc2cccc(F)c2c(=O)n1-c1ccccc1 [IDELALISIB],> 30 µM (inactive),> 30 µM (inactive),> 30 µM (inactive),> 30 µM (inactive),> 30 µM (inactive),> 30 µM (inactive),> 30 µM (inactive),> 30 µM (inactive),> 30 µM (inactive),> 30 µM (inactive),> 30 µM (inactive),> 30 µM (inactive),> 30 µM (inactive)
COC(=O)[C@@]1(O)C[C@H]2O[C@]1(C)n1c3ccccc3c3c4c(c5c6ccccc6n2c5c31)C(=O)NC4 [K-252A],> 30 µM (inactive),> 30 µM (inactive),> 30 µM (inactive),> 30 µM (inactive),> 30 µM (inactive),> 30 µM (inactive),> 30 µM (inactive),> 30 µM (inactive),0.254 µM (active),0.193 µM (active),> 30 µM (inactive),> 30 µM (inactive),> 30 µM (inactive)
Cc1c(F)cc(C(=O)NC2CC2)cc1-c1ccc(C(=O)NCC(C)(C)C)cn1 [LOSMAPIMOD],> 30 µM (inactive),> 30 µM (inactive),> 30 µM (inactive),> 30 µM (inactive),> 30 µM (inactive),> 30 µM (inactive),> 30 µM (inactive),> 30 µM (inactive),> 30 µM (inactive),> 30 µM (inactive),1.92 µM,> 30 µM (inactive),> 30 µM (inactive)
O=C(O)[C@]1(Cc2cccc(Nc3nccs3)n2)CC[C@@H](Oc2cccc(Cl)c2F)CC1 [MK-5108],0.841 µM (active),> 30 µM (inactive),> 30 µM (inactive),> 30 µM (inactive),> 30 µM (inactive),> 30 µM (inactive),> 30 µM (inactive),> 30 µM (inactive),0.024 µM (active),> 30 µM (inactive),> 30 µM (inactive),> 30 µM (inactive),> 30 µM (inactive)
Cc1ccc(-n2nc(C(C)(C)C)cc2NC(=O)NCc2cc(F)ccc2Oc2ccc3c(cnn3CCO)c2)cc1 [PEXMETINIB],> 30 µM (inactive),> 30 µM (inactive),> 30 µM (inactive),> 30 µM (inactive),> 30 µM (inactive),> 30 µM (inactive),> 30 µM (inactive),> 30 µM (inactive),> 30 µM (inactive),> 30 µM (inactive),> 30 µM (inactive),> 30 µM (inactive),> 30 µM (inactive)
C=CC(=O)N1CCC(Oc2cc3c(Nc4ccc(Cl)c(Cl)c4F)ncnc3cc2OC)CC1 [POZIOTINIB],> 30 µM (inactive),> 30 µM (inactive),> 30 µM (inactive),> 30 µM (inactive),> 30 µM (inactive),> 30 µM (inactive),> 30 µM (inactive),> 30 µM (inactive),> 30 µM (inactive),> 30 µM (inactive),> 30 µM (inactive),> 30 µM (inactive),> 30 µM (inactive)
CNC(=O)c1cc(Oc2ccc(NC(=O)Nc3ccc(Cl)c(C(F)(F)F)c3)c(F)c2)ccn1 [REGORAFENIB],> 30 µM (inactive),> 30 µM (inactive),> 30 µM (inactive),> 30 µM (inactive),> 30 µM (inactive),> 30 µM (inactive),> 30 µM (inactive),> 30 µM (inactive),> 30 µM (inactive),> 30 µM (inactive),> 30 µM (inactive),> 30 µM (inactive),> 30 µM (inactive)
